Some test systems named below: SNB-19; IGROV-1; OVCAR-3; MOLT-4; HOP-92; SF-295; SF-539; KM12; SF-268; EKVX; A498; MDA-MB-231; HL-60; NCI/ADR-RES; MCF7; SNB-75; DU-145; CCRF-CEM; U-251; HT-29.
Common to all, as to assay: growth of human tumour cells (NCI), 48 h

The text below walks through data of ChEMBL document CHEMBL1201862, “PubChem BioAssay data set” (2004).

Structures are written as SMILES.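 Where inhibition never reached the appropriate level, the endpoint shown equals the highest concentration tested. Otherwise, values were interpolated linearly from a five-concentration, 48-hour dose response in 96-well plates. Abbreviation: GI50, concentration required for 50% inhibition of growth.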 Active and inactive are the calls of the source. No stated cut-off is given here; in the data, active = GI50 up to about 1.1 µM and inactive = higher.

Take `CN(C)c1ccc(/C=C2\N=C(c3ccccc3)N(c3ccc4c(c3)Sc3cc(N5C(=O)/C(=C/c6ccc(N(C)C)cc6)N=C5c5ccccc5)ccc3N4)C2=O)cc1`: the GI50 with SNB-19 was 17.5 µM (inactive); in the assay on IGROV-1, 18.1 µM (inactive); with OVCAR-3, 12.2 µM (inactive); with MOLT-4, 61.5 µM (inactive); in the assay with HOP-92, 18.3 µM (inactive); in the assay with SF-295, 15.2 µM (inactive). Moreover, the GI50 is 17.5 µM (inactive) in the assay on SF-539; > 100 µM (inactive) with KM12; 19.2 µM (inactive) in the assay on SF-268; 25.8 µM (inactive) in the assay on EKVX; 16.8 µM (inactive) in the assay with A498; 18.2 µM (inactive) in the assay on MDA-MB-231. For the same molecule, the GI50 in the assay on HL-60 is 27.5 µM (inactive); with NCI/ADR-RES, 28.4 µM (inactive); with MCF7 it was 17 µM (inactive); with SNB-75 it was 11.9 µM (inactive); in the assay on DU-145 it was 22.1 µM (inactive); in the assay on CCRF-CEM, 3.73 µM (inactive). The GI50 with U-251 was 15.6 µM (inactive); in the assay on HT-29 it was 54.7 µM (inactive).

In the case of `CC(=O)O[C@H]1C(=O)[C@@]2(C)[C@H]([C@H](OC(=O)c3ccccc3)[C@]3(O)C[C@H](OC(=O)[C@H](O)[C@@H](NC(=O)c4ccccc4)c4ccc5ccccc5c4)C(C)=C1C3(C)C)[C@]1(OC(C)=O)CO[C@@H]1C[C@@H]2O`, the GI50 in the assay with SNB-19 was 0.279 µM (active); in the assay with IGROV-1, 0.0467 µM (active); with OVCAR-3, 0.0362 µM (active); with MOLT-4 it was 0.0264 µM (active); in the assay on HOP-92 it was 2.25 µM (inactive); in the assay with SF-295, 0.304 µM (active). For the same molecule, the GI50 in the assay on SF-539 was 0.0336 µM (active); with KM12 it was 0.0512 µM (active); with SF-268, 0.0239 µM (active); with EKVX it was 5.35 µM (inactive); in the assay on A498, 0.467 µM (active); in the assay on MDA-MB-231 it was 0.0476 µM (active). Also, the GI50 in the assay on HL-60 was 0.0107 µM (active); with NCI/ADR-RES, 15.7 µM (inactive); in the assay on MCF7 it was 0.00966 µM (active); with SNB-75, 0.0594 µM (active); with DU-145, 0.1 µM (active); in the assay with CCRF-CEM, 0.0287 µM (active). For the same molecule, the GI50 in the assay on U-251 is 0.0692 µM (active); with HT-29 it was 0.0454 µM (active).

In the case of `NC1CC(=O)c2csc(Cl)c21` (stereo not given), the GI50 in the assay on SNB-19 is 17.5 µM (inactive); in the assay on IGROV-1, 15.7 µM (inactive); in the assay on OVCAR-3 it was 6.38 µM (inactive); in the assay on MOLT-4 it was 1.48 µM (inactive); in the assay on HOP-92 it was 4.46 µM (inactive); in the assay with SF-295, 17.1 µM (inactive). Also, the GI50 in the assay with SF-539 was 2.23 µM (inactive); in the assay on KM12 it was 0.736 µM (active); with SF-268, 10.1 µM (inactive); in the assay on EKVX, 17.3 µM (inactive); in the assay with A498, 17.1 µM (inactive); in the assay on MDA-MB-231, 9.46 µM (inactive). In addition, the GI50 in the assay with HL-60 is 2.72 µM (inactive); with NCI/ADR-RES it was 27 µM (inactive); in the assay on MCF7, 17.5 µM (inactive); with SNB-75, 17.3 µM (inactive); in the assay on DU-145, 8.11 µM (inactive); with CCRF-CEM, 0.778 µM (active). Besides, the GI50 in the assay on U-251 was 8.51 µM (inactive); in the assay on HT-29, 10.3 µM (inactive).

Regarding `c1ccc2cc3c(NC4=NCCO4)cccc3cc2c1`, the GI50 in the assay on SNB-19 is 78.7 µM (inactive); in the assay with IGROV-1, 60.8 µM (inactive); with OVCAR-3, 32.2 µM (inactive); in the assay on MOLT-4, 31.1 µM (inactive); with HOP-92 it was 17.6 µM (inactive); in the assay on SF-295, > 100 µM (inactive). Further, the GI50 with SF-539 is 97.5 µM (inactive); with KM12, 44.7 µM (inactive); with SF-268 it was 34.2 µM (inactive); in the assay on EKVX, 76.2 µM (inactive); with A498, 67.6 µM (inactive); in the assay on MDA-MB-231, 25.2 µM (inactive). The GI50 in the assay with HL-60 is 25.9 µM (inactive); in the assay on NCI/ADR-RES, 75.2 µM (inactive); in the assay on MCF7, 68.7 µM (inactive); with SNB-75 it was 24.8 µM (inactive); in the assay with DU-145, 78.7 µM (inactive); with CCRF-CEM it was 27.7 µM (inactive). Moreover, the GI50 with U-251 is > 100 µM (inactive); with HT-29, 29.9 µM (inactive).

`COc1c2c(c(OC)c3c1c(=O)c1ccccc1n3C)OCO2`: the GI50 in the assay on SNB-19 is 26.5 µM (inactive); in the assay with IGROV-1, 7.87 µM (inactive); with OVCAR-3 it was 5.51 µM (inactive); in the assay on MOLT-4 it was 7.85 µM (inactive); in the assay on HOP-92, > 47.8 µM (inactive); with SF-295 it was 14.1 µM (inactive). Also, the GI50 is 5.31 µM (inactive) with SF-539; 3.25 µM (inactive) in the assay on KM12; 18.5 µM (inactive) in the assay on SF-268; 35.4 µM (inactive) in the assay with EKVX; 53.3 µM (inactive) in the assay on A498; 19.3 µM (inactive) in the assay on MDA-MB-231. Also, the GI50 in the assay with HL-60 is 3.18 µM (inactive); in the assay with NCI/ADR-RES, 44.9 µM (inactive); in the assay with MCF7, 4.2 µM (inactive); in the assay with SNB-75 it was 6.68 µM (inactive); in the assay with DU-145, 36.5 µM (inactive); with CCRF-CEM it was 4.35 µM (inactive). The values for the GI50 in the assay with U-251 and in the assay with HT-29 were 19.1 µM (inactive) and 17.5 µM (inactive), respectively.

For `CCN(CC)c1cc2c3c(c1)CCCN3CCC2`, the GI50 with SNB-19, in the assay on IGROV-1, in the assay with OVCAR-3, in the assay on MOLT-4, in the assay on HOP-92 and in the assay with SF-295 was > 10 µM (inactive) throughout. Besides, the GI50 in the assay with SF-539, in the assay on KM12, in the assay with SF-268, with EKVX, in the assay on A498 and in the assay on MDA-MB-231 was > 10 µM (inactive) each time. The GI50 with HL-60, in the assay with NCI/ADR-RES, in the assay on MCF7, in the assay with SNB-75, in the assay with DU-145 and in the assay with CCRF-CEM was > 10 µM (inactive) throughout. In addition, the GI50 in the assay with U-251 and with HT-29 was > 10 µM (inactive) throughout.

For the molecule `O=C(CCCN1CCC2(CC1)C(=O)NC(=O)N2c1ccccc1)c1ccc(F)cc1`, the GI50 in the assay with SNB-19, with IGROV-1, with OVCAR-3, in the assay on MOLT-4, in the assay with HOP-92 and in the assay on SF-295 was > 100 µM (inactive) in each case. Also, the GI50 with SF-539, in the assay on KM12, in the assay with SF-268, in the assay on EKVX, with A498 and with MDA-MB-231 was > 100 µM (inactive) in each case. In addition, the GI50 in the assay with HL-60, in the assay on NCI/ADR-RES, in the assay with MCF7, in the assay on SNB-75, in the assay with DU-145 and in the assay on CCRF-CEM was > 100 µM (inactive) each time. In addition, the figures for the GI50 in the assay on U-251 and in the assay with HT-29 were > 100 µM (inactive) and 66.2 µM (inactive), respectively.

For the molecule `O=C1N/C(=N/N=C/c2cccs2)N/C1=C\c1ccco1`, the GI50 is 81.5 µM (inactive) in the assay on SNB-19; 26.1 µM (inactive) in the assay on IGROV-1; 22.5 µM (inactive) with OVCAR-3; > 100 µM (inactive) in the assay with MOLT-4; > 100 µM (inactive) in the assay with HOP-92; 94.2 µM (inactive) in the assay with SF-295. In addition, the GI50 in the assay with SF-539 is 28.9 µM (inactive); in the assay on KM12 it was 34 µM (inactive); with SF-268, 19.8 µM (inactive); with EKVX it was > 100 µM (inactive); in the assay on A498, 17.1 µM (inactive); in the assay on MDA-MB-231, > 100 µM (inactive). Besides, the GI50 was 31.4 µM (inactive) in the assay with HL-60; 66.4 µM (inactive) in the assay on NCI/ADR-RES; 30.3 µM (inactive) in the assay on MCF7; 84.7 µM (inactive) in the assay on SNB-75; > 100 µM (inactive) with DU-145; 12 µM (inactive) in the assay with CCRF-CEM. The GI50 is 23.5 µM (inactive) in the assay with U-251 and 39.6 µM (inactive) in the assay on HT-29.

Regarding `O=C(N/N=C\c1cccc2ccccc12)Nc1ccc([N+](=O)[O-])cc1`, the GI50 in the assay with SNB-19 was 21.4 µM (inactive); in the assay with IGROV-1, 18.4 µM (inactive); with OVCAR-3, 7.74 µM (inactive); in the assay on MOLT-4, 20.8 µM (inactive); with HOP-92, 6.67 µM (inactive); in the assay with SF-295, 13.7 µM (inactive). In addition, the GI50 was 8.05 µM (inactive) with SF-539; 10.9 µM (inactive) in the assay on KM12; 19.5 µM (inactive) with SF-268; > 39.4 µM (inactive) with EKVX; 2.66 µM (inactive) with A498; 30.7 µM (inactive) with MDA-MB-231. Besides, the GI50 is > 40.6 µM (inactive) with HL-60; 13.9 µM (inactive) in the assay on NCI/ADR-RES; 9.51 µM (inactive) with MCF7; 38.9 µM (inactive) with SNB-75; 15.3 µM (inactive) in the assay on DU-145; 24.3 µM (inactive) in the assay on CCRF-CEM. For the same molecule, the GI50 in the assay on U-251 is 17.1 µM (inactive); with HT-29, 16.8 µM (inactive).

Take `CN(C)c1ccc(/C=C/C(=O)c2ccc(O)cc2)cc1`: the GI50 with SNB-19 is 25.1 µM (inactive); in the assay with IGROV-1, 10.2 µM (inactive); with OVCAR-3 it was 2.9 µM (inactive); in the assay with MOLT-4 it was 2.64 µM (inactive); in the assay on HOP-92 it was 38.2 µM (inactive); in the assay on SF-295 it was 4.58 µM (inactive). Further, the GI50 in the assay on SF-539 is 3.2 µM (inactive); in the assay on KM12, 3.25 µM (inactive); in the assay on SF-268, 15.4 µM (inactive); with EKVX it was 31.3 µM (inactive); in the assay with A498, 17.1 µM (inactive); with MDA-MB-231 it was 22.3 µM (inactive). Further, the GI50 is 1.79 µM (inactive) with HL-60; 2.98 µM (inactive) in the assay with NCI/ADR-RES; 4.11 µM (inactive) in the assay with MCF7; 5.2 µM (inactive) in the assay on SNB-75; 8.67 µM (inactive) in the assay on DU-145; 2.83 µM (inactive) in the assay with CCRF-CEM. Moreover, the GI50 was 3.99 µM (inactive) with U-251 and 5.21 µM (inactive) in the assay on HT-29.
